Assay results published in ChEMBL document CHEMBL4011656, “Discovery and Optimization of Chromeno[2,3-c]pyrrol-9(2H)-ones as Novel Selective and Orally Bioavailable Phosphodiesterase 5 Inhibitors for the Treatment of Pulmonary Arterial Hypertension” (J Med Chem, 2017).

Experiments:
[1] = Cmax in Sprague-Dawley rat at […], iv by LC-MS/MS analysis; type: ADME, organism-based; parameters: dose 2.5 mg/kg, route intravenous; conditions: in vivo
[2] = MRT (0 to t) in Sprague-Dawley rat at 5 mg/kg, po by LC-MS/MS analysis; type: ADME, organism-based; conditions: in vivo
Liver = assay: Intrinsic clearance in rat liver microsomes at 0.5 uM; type: ADME, microsome
[3] = Hepatic clearance in rat liver microsomes at 0.5 uM; type: ADME, microsome
[4] = Hepatic clearance in human microsomes at 0.5 uM; type: ADME, microsome; conditions: liver microsomes
Cytochrome P450 1A2 = biological target: T1, Cytochrome P450 1A2 (Homo sapiens, UniProt P05177); assay: Inhibition of CYP1A2 in human microsomes in presence of NADPH; type: ADME
T1 sequence (P05177 whole entry): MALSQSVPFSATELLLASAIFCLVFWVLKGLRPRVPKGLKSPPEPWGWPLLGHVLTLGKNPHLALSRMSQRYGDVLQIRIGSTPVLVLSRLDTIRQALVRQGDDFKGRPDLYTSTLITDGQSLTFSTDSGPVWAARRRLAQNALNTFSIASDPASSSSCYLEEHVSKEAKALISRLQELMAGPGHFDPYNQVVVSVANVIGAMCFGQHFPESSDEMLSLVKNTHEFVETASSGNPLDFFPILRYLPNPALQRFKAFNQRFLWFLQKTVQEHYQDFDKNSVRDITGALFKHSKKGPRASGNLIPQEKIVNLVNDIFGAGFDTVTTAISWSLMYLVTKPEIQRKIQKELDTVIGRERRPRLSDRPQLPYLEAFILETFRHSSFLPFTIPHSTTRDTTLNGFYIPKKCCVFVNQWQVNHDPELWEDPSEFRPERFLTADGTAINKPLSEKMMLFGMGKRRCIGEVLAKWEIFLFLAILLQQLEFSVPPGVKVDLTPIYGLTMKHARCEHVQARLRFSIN

Cytochrome P450 2C8 = biological target: T2, Cytochrome P450 2C8 (Homo sapiens, UniProt P10632); assay: Inhibition of CYP2C8 in human microsomes in presence of NADPH; type: ADME
T2 sequence (P10632 whole entry): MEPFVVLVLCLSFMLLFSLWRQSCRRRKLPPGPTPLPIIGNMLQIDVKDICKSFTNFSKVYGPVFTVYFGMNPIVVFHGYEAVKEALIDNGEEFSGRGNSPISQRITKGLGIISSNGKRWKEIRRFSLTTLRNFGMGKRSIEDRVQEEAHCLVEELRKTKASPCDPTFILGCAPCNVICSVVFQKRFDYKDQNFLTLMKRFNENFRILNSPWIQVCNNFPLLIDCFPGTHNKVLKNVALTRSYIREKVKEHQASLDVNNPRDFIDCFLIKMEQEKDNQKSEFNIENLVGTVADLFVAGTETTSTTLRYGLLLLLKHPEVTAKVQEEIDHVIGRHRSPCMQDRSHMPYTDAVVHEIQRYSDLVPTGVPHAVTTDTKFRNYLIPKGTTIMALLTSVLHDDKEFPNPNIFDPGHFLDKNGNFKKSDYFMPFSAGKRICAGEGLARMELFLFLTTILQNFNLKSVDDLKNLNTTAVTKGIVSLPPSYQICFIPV

Cytochrome P450 2D6 = Cytochrome P450 2D6 (Homo sapiens, UniProt P10635); assay: Inhibition of CYP2D6 in human microsomes in presence of NADPH; type: ADME
Sequence of Cytochrome P450 2D6 (P10635 whole entry): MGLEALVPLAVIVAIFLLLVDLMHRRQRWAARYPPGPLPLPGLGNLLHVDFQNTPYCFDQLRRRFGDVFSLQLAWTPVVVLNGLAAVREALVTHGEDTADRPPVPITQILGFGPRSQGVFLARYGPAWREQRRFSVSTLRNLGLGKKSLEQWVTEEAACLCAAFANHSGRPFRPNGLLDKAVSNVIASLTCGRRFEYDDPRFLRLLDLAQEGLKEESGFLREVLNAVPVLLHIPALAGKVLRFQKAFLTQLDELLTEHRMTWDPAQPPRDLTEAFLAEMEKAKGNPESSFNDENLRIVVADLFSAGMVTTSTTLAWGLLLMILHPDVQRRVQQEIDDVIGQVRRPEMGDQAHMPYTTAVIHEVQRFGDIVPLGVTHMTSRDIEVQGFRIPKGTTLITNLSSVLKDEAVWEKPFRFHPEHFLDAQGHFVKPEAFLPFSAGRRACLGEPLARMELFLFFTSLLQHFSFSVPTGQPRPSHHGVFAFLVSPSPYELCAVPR

Cytochrome P450 3A4 = Cytochrome P450 3A4 (Homo sapiens, UniProt P08684); assay: Inhibition of CYP3A4 in human microsomes in presence of NADPH; type: ADME
Sequence of Cytochrome P450 3A4 (P08684 whole entry): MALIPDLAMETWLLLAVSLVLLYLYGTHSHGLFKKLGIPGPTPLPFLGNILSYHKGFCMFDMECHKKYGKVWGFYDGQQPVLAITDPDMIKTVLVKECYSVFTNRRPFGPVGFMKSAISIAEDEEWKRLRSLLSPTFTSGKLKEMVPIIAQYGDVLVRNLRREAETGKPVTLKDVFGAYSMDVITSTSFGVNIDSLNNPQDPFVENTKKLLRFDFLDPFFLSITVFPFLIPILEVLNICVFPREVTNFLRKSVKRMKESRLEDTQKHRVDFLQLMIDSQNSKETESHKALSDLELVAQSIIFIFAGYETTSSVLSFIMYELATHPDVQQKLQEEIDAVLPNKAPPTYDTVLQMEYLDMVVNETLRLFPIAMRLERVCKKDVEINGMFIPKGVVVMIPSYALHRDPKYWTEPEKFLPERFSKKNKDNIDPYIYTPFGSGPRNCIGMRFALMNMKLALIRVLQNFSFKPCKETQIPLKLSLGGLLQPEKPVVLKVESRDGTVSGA

Mus musculus = assay: Acute toxicity in Kunming mouse assessed as effect on water consumption at 1000 to 1500 mg/kg, po administered as single dose measured up to 2 weeks post dose; type: organism-based; conditions: in vivo, 336 h
Rattus norvegicus = assay: Toxicity in Sprague-Dawley rat assessed as effect on body weight up to 300 mg/kg, po daily for 2 weeks; type: organism-based; conditions: in vivo, 336 h

Molecule `O=c1c2ccccc2oc2c(Cc3ccc4c(c3)OCO4)[nH]c(-c3nccs3)c12` has a Cmax [1] of 2360 ng/mL, an MRT last [2] of 4.76 h and a CLH (Liver) of 56.1 µL/min/mg. The CLhep predicted at 0.5 µM [3] was 35.6 mL/min/kg, the CLhep predicted at 0.5 µM [4] was 10.9 mL/min/kg and the IC50 (Cytochrome P450 1A2) was 7.6 µM. For the same molecule, the IC50 (Cytochrome P450 2C8) was over 25 µM, the IC50 (Cytochrome P450 2D6) was over 25 µM and the IC50 (Cytochrome P450 3A4) was over 25 µM. For the same molecule, the Activity (Mus musculus) was “Non-Toxic” and the Activity (Rattus norvegicus) was “Non-Toxic”.
